This note sets out measurements from article PMC4741889, “Ligand-based chemoinformatic discovery of a novel small molecule inhibitor targeting CDC25 dual specificity phosphatases and displaying in vitro efficacy against melanoma cells” (Oncotarget, 2015).

What all share (type): cell-based, human
The subject of one test is caspase-3 activity. In words: Caspase-3 enzymatic activity in SAN cells. The note with it: 100 μM. The source says:
PI incorporation followed by flow cytometric analysis was used to detect the effect of 7 on the number of nuclei with a sub-diploid content, a typical hallmark of apoptosis. A time-dependent increase of apoptosis was evident in both A2058 and SAN cells and in particular, the effect of 7 on cell death program was already evident after 24-h treatment (Figure 7). […] To further investigate on the capacity of 7 to induce apoptosis, the enzymatic activity of caspase-3, the final effector of apoptotic program, was monitored.
To estimate caspase-3 and caspase-9 activity during the treatment with compound 7, the respective enzymatic activities were measured by using caspase-3 and -9 fluorimetric assay kits, according to the manufacturer's protocol, essentially as previously described. Briefly, cells were seeded into 75 cm^2 plates (2 × 10^6 cells/plate) for 24 h at 37°C and then treated with 100 μM 7 or 0.5% DMSO. At the end of each incubation, cells were collected, washed with PBS, and finally lysed at 4°C in the cell lysis buffer. Cell lysates were incubated with 50 μM DEVD-AFC or LEHD-AFC substrates at 37°C for 2 h, to detect caspase-3 or caspase-9 activity, respectively, using a Cary Eclipse fluorescence spectrophotometer (Varian). Excitation and emission wavelengths were set at 400 nm and 505 nm, respectively; both excitation and emission slits were set at 10 nm.

The next test concerns SAN cells. As to the kind of experiment: Cell cycle analysis by PI flow cytometry, SAN cells. The note with it: 100 μM, 16 and 24 h. The procedure:
As CDC25 phosphatases are key cell cycle regulators, the effect of 7 on cell cycle progression was investigated in detail. To this aim, asynchronously growing A2058 and SAN cells were treated at different times with 100 μM compound 7, and then cell cycle analysis was cytofluorimetrically monitored after propidium iodide (PI) incorporation. […] After 16-h incubation with […], cells were mainly and almost equally distributed in G0/G1 and G2/M phases (the ratio between them being 0.96), whereas the cellular population in the S phase was essentially undetectable. […] A similar general picture emerged from the effect of compound 7 on cell cycle progression of SAN cells (Supplementary Figure S3).
Cells were seeded into 6-well plates at 3 × 10^5 cells/well for 24 h at 37°C; after the addition of 100 μM 7 or 0.5% DMSO as a vehicle control, the incubation of treated cells continued for 16 or 24 h. After each treatment, cells were harvested with trypsin, centrifuged and the pellet was resuspended in phosphate-buffered saline (PBS). For cell cycle analysis, cells were fixed with 70% (v/v) cold ethanol and stored at −20°C for 1 h. […] After incubation at 4°C for 30 min, cells were analyzed with a FACScan flow cytometer (Becton Dickinson) for evaluating the distribution in cell cycle phases or the presence of nuclei with a DNA content lower than the diploid.

The test system of the next test is A2058 cells. In words: Mitochondrial membrane potential (R123), A2058 cells. Particulars: A2058, 100 μM, 24 h up to 72 h. The procedure: Mitochondria represent the primary source of ROS, as well the target of ROS action, and therefore, compound 7 could affect their functionality in melanoma cells. […] Proteins belonging to the B-cell lymphoma-2 (Bcl-2) family are involved in the modulation of the mitochondrial functionality. Therefore, we have evaluated the levels of the anti-apoptotic protein Bcl-2, as well as that of the pro-apoptotic Bcl-2-associated X protein (Bax), after incubation with 7 (Figure 10B). […] To further investigate the occurrence of a mitochondrial-mediated apoptosis induced by 7, the caspase-9 activity was assayed. […] The effect of compound 7 was investigated also in SAN cells and the overall results were similar to those observed in A2058 (Supplementary Figure S6).
Mitochondrial membrane potential was evaluated by measuring the incorporation of the fluorescent probe R123, essentially as previously described. Briefly, cells were seeded into 6-well-plates (3 × 10^5 cells/well) for 24 h at 37°C, and then incubated at 37°C for 1 h in the presence of 5 μM R123, washed twice with PBS, and placed in medium containing 100 μM compound 7 or 0.5% DMSO. […] The fluorescence of cell-associated R123 was detected in the above-mentioned fluorescence spectrophotometer, using excitation and emission wavelengths of 490 and 520 nm, respectively; both excitation and emission slits were set at 10 nm.

Test [1] relates to Bcl-2 and Bax protein levels. In words: Western blotting of Bcl-2 and Bax protein levels in SAN cells. Particulars: 100 μM, 8 or 16 h. The procedure: Mitochondria represent the primary source of ROS, as well the target of ROS action, and therefore, compound 7 could affect their functionality in melanoma cells. […] Proteins belonging to the B-cell lymphoma-2 (Bcl-2) family are involved in the modulation of the mitochondrial functionality. Therefore, we have evaluated the levels of the anti-apoptotic protein Bcl-2, as well as that of the pro-apoptotic Bcl-2-associated X protein (Bax), after incubation with 7 (Figure 10B). […] To further investigate the occurrence of a mitochondrial-mediated apoptosis induced by 7, the caspase-9 activity was assayed. […]
A2058 cells were seeded into 6-well-plates (3 × 10^5 cells/plate) for 24 h at 37°C and then treated at different times with 100 μM compound 7 or 0.5% DMSO. […] The protein concentration was determined by the method of Bradford, using bovine serum albumin (BSA) as standard. […] Membranes were then analysed by an enhanced chemiluminescence reaction, using Super Signal West Pico kit (Pierce) according to manufacturer's instruction; signals were visualized by autoradiography.
Supplementary Figure S6: Effect of compound 7 on some apoptotic mitochondrial markers in SAN cells. […] Total protein extracts from SAN cells, incubated with 0.5% DMSO or 100 μM compound 7 for 8 or 16 h,were analyzed by Western blotting. […]
On the technique in general: Immunoblotting shows a protein as a band on a membrane.

For the molecule `O=C(O)C1CCCCC1c1c2ccc(=O)cc-2oc2cc(O)ccc12` (centres unmarked) [Compound 7, 2-(6-hydroxy-3-oxo-3H-xanthen-9-yl)cyclohexanecarboxylic acid], in the test on caspase-3 activity, the caspase-3 enzymatic activity entry is recorded as “significant increase of the enzymatic activity of caspase-3”. Also, the “cell distribution in the G2/M phase” value in the test on SAN cells was “increase of cell distribution in the G2/M phase”. In addition, in the test on A2058 cells, the “mitochondrial membrane potential (R123 fluorescence)” value is “reduction of the mitochondrial membrane potential”. In test [1], the Bcl-2/Bax ratio result was “significantly decreased”; the “Bcl-2 and Bax protein levels” value is “both levels of Bcl-2 and Bax were reduced”.
